Experimental data: patent US7858630B2, “D3 and 5-HT2A receptor modulators” (Hoffmann-La Roche Inc., priority 2008, dated 2010)

Key:
[1] = target: T1, human dopamine D2 receptor (Homo sapiens, UniProt P14416); assay: Radioligand binding ([3H]-spiperone) to membranes of HEK-293 EBNA cells expressing human D2 receptor; details: human D2, 0.7 nM [3H]-spiperone, HEK-293 EBNA membranes, 1 h at RT
T1 construct: expressed in transfected cells; host or cells: HEK-293 EBNA cells, transient transfection; membrane preparation
T1 sequence (P14416 whole entry): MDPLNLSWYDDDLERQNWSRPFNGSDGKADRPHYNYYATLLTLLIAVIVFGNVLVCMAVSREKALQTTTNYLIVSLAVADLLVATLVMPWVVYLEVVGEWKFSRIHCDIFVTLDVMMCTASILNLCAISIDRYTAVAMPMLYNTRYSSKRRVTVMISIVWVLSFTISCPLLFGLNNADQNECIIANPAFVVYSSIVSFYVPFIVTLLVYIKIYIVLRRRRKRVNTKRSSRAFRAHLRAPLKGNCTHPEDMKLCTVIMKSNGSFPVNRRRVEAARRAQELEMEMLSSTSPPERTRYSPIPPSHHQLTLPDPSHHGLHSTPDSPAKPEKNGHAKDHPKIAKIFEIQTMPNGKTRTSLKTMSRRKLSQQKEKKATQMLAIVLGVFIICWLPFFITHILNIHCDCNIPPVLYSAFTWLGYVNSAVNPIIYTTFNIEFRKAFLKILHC
How it was run: (§1)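 Membranes from HEK-293 EBNA cells transiently transfected with the receptor were incubated 1 h at RT with ten test concentrations (10 μM–0.1 nM) and ~0.7 nM [3H]-spiperone (D2), 0.5 nM [3H]-spiperone (D3) or 1.1 nM [3H]-ketanserin (5-HT2A). Nonspecific binding was set with 10 μM spiperone, bound radioactivity was read by filtration and scintillation, and Ki was taken from IC50 via Cheng-Prusoff.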

[2] = target: T2, human serotonin 5-HT2A receptor (Homo sapiens, UniProt P28223); assay: Radioligand binding ([3H]-ketanserin) to membranes of HEK-293 EBNA cells expressing human 5-HT2A receptor; details: 1.1 nM [3H]-ketanserin, HEK-293 EBNA membranes, 1 h at RT
T2 construct: expressed in transfected cells; host or cells: HEK-293 EBNA cells, transient transfection; membrane preparation
T2 sequence (P28223 whole entry): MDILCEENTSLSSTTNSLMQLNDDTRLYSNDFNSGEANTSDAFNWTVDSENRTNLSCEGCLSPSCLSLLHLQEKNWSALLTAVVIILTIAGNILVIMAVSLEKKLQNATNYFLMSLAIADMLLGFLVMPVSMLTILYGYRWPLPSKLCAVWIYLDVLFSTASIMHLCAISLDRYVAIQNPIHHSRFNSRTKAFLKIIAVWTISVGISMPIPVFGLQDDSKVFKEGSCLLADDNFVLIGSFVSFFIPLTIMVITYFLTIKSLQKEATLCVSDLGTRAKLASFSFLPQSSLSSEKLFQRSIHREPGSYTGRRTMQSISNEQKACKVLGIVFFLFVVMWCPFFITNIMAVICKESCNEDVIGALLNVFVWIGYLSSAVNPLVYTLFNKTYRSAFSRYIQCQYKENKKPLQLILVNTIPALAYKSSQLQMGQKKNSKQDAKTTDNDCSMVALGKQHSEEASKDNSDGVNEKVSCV
How it was run: as §1

[3] = target: T3, human dopamine D3 receptor (Homo sapiens, UniProt P35462); assay: Radioligand binding ([3H]-spiperone) to membranes of HEK-293 EBNA cells expressing human D3 receptor; details: human D3, 0.5 nM [3H]-spiperone, HEK-293 EBNA membranes, 1 h at RT
T3 construct: expressed in transfected cells; host or cells: HEK-293 EBNA cells, transient transfection; membrane preparation
T3 sequence (P35462 whole entry): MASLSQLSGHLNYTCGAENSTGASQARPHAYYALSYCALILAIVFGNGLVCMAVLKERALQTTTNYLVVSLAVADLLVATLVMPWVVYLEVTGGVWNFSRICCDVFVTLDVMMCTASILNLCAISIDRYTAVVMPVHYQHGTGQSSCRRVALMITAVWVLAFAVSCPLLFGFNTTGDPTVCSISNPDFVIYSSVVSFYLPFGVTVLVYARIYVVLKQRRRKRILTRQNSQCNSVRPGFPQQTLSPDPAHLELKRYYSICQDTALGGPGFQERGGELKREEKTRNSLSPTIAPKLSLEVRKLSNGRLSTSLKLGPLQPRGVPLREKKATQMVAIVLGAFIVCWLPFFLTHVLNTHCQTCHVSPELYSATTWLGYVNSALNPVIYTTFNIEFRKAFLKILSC
How it was run: as §1

Row | SMILES | Ki [1] [µM] | Ki [2] [µM] | Ki [3] [µM]
1 | CO[C@H]1CC[C@H](CC(=O)N[C@H]2CC[C@H](CCN3CCN(c4noc5cc(F)c(F)cc45)CC3)CC2)CC1 [Example 58, N-trans-(4-{2-[4-(5,6-Difluoro-benzo[d]isoxazol-3-yl)-piperazin-1-yl]-ethyl}-cyclohexyl)-2-trans-(4-methoxy-cyclohexyl)-acetamide] | 11.3 | 0.00759 | 0.0144
2 | COCC(=O)N[C@H]1CC[C@H](CCN2CCN(c3noc4cc(F)c(F)cc34)CC2)CC1 [Example 60, N-trans-(4-{2-[4-(5,6-Difluoro-benzo[d]isoxazol-3-yl)-piperazin-1-yl]-ethyl}-cyclohexyl)-2-methoxy-acetamide] | 0.878 | 0.0095 | 0.0204
3 | O=C(CC1CCOCC1)N[C@H]1CC[C@H](CCN2CCN(c3noc4cc(F)c(F)cc34)CC2)CC1 [Example 63, N-trans-(4-{2-[4-(5,6-Difluoro-benzo[d]isoxazol-3-yl)-piperazin-1-yl]-ethyl}-cyclohexyl)-2-(tetrahydro-pyran-4-yl)-acetamide] | 9.71 | 0.00688 | 0.00713
4 | COC1CCC(C(=O)N[C@H]2CC[C@H](CCN3CCN(c4noc5cc(F)c(F)cc45)CC3)CC2)CC1 (stereo partly drawn) [Example 66, 4-Methoxy-cyclohexanecarboxylic acid N-trans(4-{2-[4-(5,6-difluoro-benzo[d]isoxazol-3-yl)-piperazin-1-yl]-ethyl}-cyclohexyl)-amide] | 2.93 | 0.00694 | 0.0263
5 | O=C(N[C@H]1CC[C@H](CCN2CCN(c3noc4cc(F)c(F)cc34)CC2)CC1)C1CCOCC1 [Example 67, Tetrahydro-pyran-4-carboxylic acid N-trans-(4-{2-[4-(5,6-difluoro-benzo[d]isoxazol-3-yl)-piperazin-1-yl]-ethyl}-cyclohexyl)-amide] | 2.67 | 0.00772 | 0.03
6 | O=C(CC1OCCCO1)N[C@H]1CC[C@H](CCN2CCN(c3noc4cc(F)c(F)cc34)CC2)CC1 [Example 69, N-trans-(4-{2-[4-(5,6-Difluoro-benzo[d]isoxazol-3-yl)-piperazin-1-yl]-ethyl}-cyclohexyl)-2-[1,3]dioxan-2-yl-acetamide] | 0.862 | 0.00633 | 0.0131
7 | COCCC(=O)N[C@H]1CC[C@H](CCN2CCN(c3noc4cc(Cl)c(F)cc34)CC2)CC1 [Example 71, N-trans-(4-{2-[4-(6-Chloro-5-fluoro-benzo[d]isoxazol-3-yl)-piperazin-1-yl]-ethyl}-cyclohexyl)-3-methoxy-propionamide] | 1.43 | 0.0892 | 0.0201
8 | O=C(CC1CCOCC1)N[C@H]1CC[C@H](CCN2CCN(c3noc4cc(Cl)c(F)cc34)CC2)CC1 [Example 72, N-trans-(4-{2-[4-(6-Chloro-5-fluoro-benzo[d]isoxazol-3-yl)-piperazin-1-yl]-ethyl}-cyclohexyl)-2-(tetrahydro-pyran-4-yl)-acetamide] | 11.3 | 0.0366 | 0.0243
9 | O=C(CC1CC1)N[C@H]1CC[C@H](CCN2CCN(c3noc4cc(F)c(Cl)cc34)CC2)CC1 [Example 75, N-trans-(4-{2-[4-(5-Chloro-6-fluoro-benzo[d]isoxazol-3-yl)-piperazin-1-yl]-ethyl}-cyclohexyl)-2-cyclopropyl-acetamide] | 1.5 | 0.00592 | 0.00165
10 | O=C(CC1OCCCO1)N[C@H]1CC[C@H](CCN2CCN(c3noc4cc(F)c(Cl)cc34)CC2)CC1 [Example 77, N-trans-(4-{2-[4-(5-Chloro-6-fluoro-benzo[d]isoxazol-3-yl)-piperazin-1-yl]-ethyl}-cyclohexyl)-2-[1,3]dioxan-2-yl-acetamide] | 2.3 | 0.00226 | 0.00606
11 | COC(CC(=O)N[C@H]1CC[C@H](CCN2CCN(c3noc4cc(F)c(Cl)cc34)CC2)CC1)OC [Example 78, N-trans-(4-{2-[4-(5-Chloro-6-fluoro-benzo[d]isoxazol-3-yl)-piperazin-1-yl]-ethyl}-cyclohexyl)-3,3-dimethoxy-propionamide] | 1.31 | 0.00505 | 0.00626
12 | O=C(C[C@H]1C[C@H](CO)C1)N[C@H]1CC[C@H](CCN2CCN(c3noc4cc(F)c(Cl)cc34)CC2)CC1 [Example 79, N-trans-(4-{2-[4-(5-Chloro-6-fluoro-benzo[d]isoxazol-3-yl)-piperazin-1-yl]-ethyl}-cyclohexyl)-2-trans-(3-hydroxymethyl-cyclobutyl)-acetamide] | 6.87 | 0.00248 | 0.00547
13 | COC[C@H]1C[C@H](CC(=O)N[C@H]2CC[C@H](CCN3CCN(c4noc5cc(F)c(Cl)cc45)CC3)CC2)C1 [Example 80, N-trans-(4-{2-[4-(5-Chloro-6-fluoro-benzo[d]isoxazol-3-yl)-piperazin-1-yl]-ethyl}-cyclohexyl)-2-trans-(3-methoxymethyl-cyclobutyl)-acetamide] | 11.7 | 0.00298 | 0.00642
14 | CSCCC(=O)N[C@H]1CC[C@H](CCN2CCN(c3noc4cc(F)c(Cl)cc34)CC2)CC1 [Example 81, N-trans-(4-{2-[4-(5-Chloro-6-fluoro-benzo[d]isoxazol-3-yl)-piperazin-1-yl]-ethyl}-cyclohexyl)-3-methylsulfanyl-propionamide] | 11.1 | 0.00528 | 0.00438

Results, then the molecule that gave them:

Row | Ki [1] [µM] | Ki [2] [µM] | Ki [3] [µM] | SMILES
15 | 0.38 | 0.012 | 0.00583 | CC(=O)N[C@H]1CC[C@H](CCN2CCN(c3noc4cc(F)c(F)cc34)CC2)CC1 [Example 56, N-trans-(4-{2-[4-(5,6-Difluoro-benzo[d]isoxazol-3-yl)-piperazin-1-yl]-ethyl}-cyclohexyl)-acetamide]
16 | 0.396 | 0.0131 | 0.00618 | COCCC(=O)N[C@H]1CC[C@H](CCN2CCN(c3noc4cc(F)c(F)cc34)CC2)CC1 [Example 57, N-trans-(4-{2-[4-(5,6-Difluoro-benzo[d]isoxazol-3-yl)-piperazin-1-yl]-ethyl}-cyclohexyl)-3-methoxy-propionamide]
17 | 0.389 | 0.0148 | 0.00988 | CCC(=O)N[C@H]1CC[C@H](CCN2CCN(c3noc4cc(F)c(F)cc34)CC2)CC1 [Example 59, N-trans-(4-{2-[4-(5,6-Difluoro-benzo[d]isoxazol-3-yl)-piperazin-1-yl]-ethyl}-cyclohexyl)-propionamide]
18 | 0.811 | 0.00845 | 0.0101 | O=C(CC1(O)CCOCC1)N[C@H]1CC[C@H](CCN2CCN(c3noc4cc(F)c(F)cc34)CC2)CC1 [Example 61, N-trans-(4-{2-[4-(5,6-Difluoro-benzo[d]isoxazol-3-yl)-piperazin-1-yl]-ethyl}-cyclohexyl)-2-(4-hydroxy-tetrahydro-pyran-4-yl)-acetamide]
19 | 0.352 | 0.00992 | 0.0134 | COC1(CC(=O)N[C@H]2CC[C@H](CCN3CCN(c4noc5cc(F)c(F)cc45)CC3)CC2)CCOCC1 [Example 62, N-trans-(4-{2-[4-(5,6-Difluoro-benzo[d]isoxazol-3-yl)-piperazin-1-yl]-ethyl}-cyclohexyl)-2-(4-methoxy-tetrahydro-pyran-4-yl)-acetamide]
20 | 0.598 | 0.0118 | 0.0101 | CC(C)(O)CC(=O)N[C@H]1CC[C@H](CCN2CCN(c3noc4cc(F)c(F)cc34)CC2)CC1 [Example 64, N-trans-(4-{2-[4-(5,6-Difluoro-benzo[d]isoxazol-3-yl)-piperazin-1-yl]-ethyl}-cyclohexyl)-3-hydroxy-3-methyl-butyramide]
21 | 0.641 | 0.0178 | 0.0164 | CCS(=O)(=O)N[C@H]1CC[C@H](CCN2CCN(c3noc4cc(F)c(F)cc34)CC2)CC1 [Example 68, Ethanesulfonic acid N-trans-(4-{2-[4-(5,6-difluoro-benzo[d]isoxazol-3-yl)-piperazin-1-yl]-ethyl}-cyclohexyl)-amide]
22 | 0.852 | 0.0681 | 0.00715 | CCC(=O)N[C@H]1CC[C@H](CCN2CCN(c3noc4cc(Cl)c(F)cc34)CC2)CC1 [Example 70, N-trans-(4-{2-{4-(6-Chloro-5-fluoro-benzo[d]isoxazol-3-yl)-piperazin-1-yl]-ethyl}-cyclohexyl)-propionamide]
23 | 0.559 | 0.0168 | 0.00974 | CC(=O)N[C@H]1CC[C@H](CCN2CCN(c3noc4cc(F)c(Cl)cc34)CC2)CC1 [Example 73, N-trans-(4-{2-[4-(5-Chloro-6-fluoro-benzo[d]isoxazol-3-yl)-piperazin-1-yl]-ethyl}-cyclohexyl)-acetamide]
24 | 0.26 | 0.0122 | 0.0101 | COCCC(=O)N[C@H]1CC[C@H](CCN2CCN(c3noc4cc(F)c(Cl)cc34)CC2)CC1 [Example 74, N-trans-(4-{2-[4-(5-Chloro-6-fluoro-benzo[d]isoxazol-3-yl)-piperazin-1-yl]-ethyl}-cyclohexyl)-3-methoxy-propionamide]
25 | 0.632 | 0.0204 | 0.0199 | O=C(CC1COCCO1)N[C@H]1CC[C@H](CCN2CCN(c3noc4cc(F)c(Cl)cc34)CC2)CC1 (stereo partly drawn) [Example 76, N-trans-(4-{2-[4-(5-Chloro-6-fluoro-benzo[d]isoxazol-3-yl)-piperazin-1-yl]-ethyl}-cyclohexyl)-2-[1,4]dioxan-2-yl-acetamide]
